Measured values taken from patent publication US9464064B2, “HCV helicase inhibitors and methods of use thereof” (University of Kansas, priority 2011, dated 2016).
Where two headings read alike, the source gives them in different places.

Key:
NS3h_2a(JFH1) = biological target: T1, NS3h_2a(JFH1) (Hepatitis C virus genotype 2a, UniProt Q99IB8); assay: MBHA, DNA substrate, genotype 2a helicase; format: biochemical, hepatitis C virus genotype 2a(JFH1)
T1 construct: truncated C-terminally His-tagged NS3 proteins lacking the N-terminal protease, called NS3h; His-tag (C); made in house
Protocol: All oligonucleotides were purchased from Integrated DNA Technologies (IDT, Coralville, Iowa). Primuline derivatives were synthesized and purified as described herein. Three different NS3 proteins were used in this study. Two were truncated C-terminally His-tagged NS3 proteins lacking the N-terminal protease, called NS3h, the third was a full-length NS3 with the portion of NS4A needed for protease activation fused to its N-terminus, called scNS4A-NS3 (Howe, et al. (1999) Protein Sci. 8:1332-41), and the fourth was a 23 kDa scNS4A-NS3 protease fragment lacking the helicase domains, called scNS4A-NS3p (Protein One, Rockville, Md.). NS3h was expressed from two different HCV strains. NS3h_1b(con1) was from the con1 strain of genotype 1b (GENBANK accession AB114136), and NS3h_2a(JFH1) was from the JFH1 strain of HCV genotype 2a (GENBANK accession AJ238799). […] His-tagged recombinant NS3h_1b(con1), NS3h_2a(JFH1), and scNS4A-NS3 (also from genotype 1b(con1)) were expressed, and purified as previously described (Frick, et al. (2010) supra; Lam, et al. (2003) J. Virol. 77:3950-3961). The scNS4A-NS3p (genotype 1b) was from Protein One. A plasmid expressing NS3h from dengue virus strain 2 (NS3h_DV2)(GENBANK accession 2BMF) is known in the art (Xu, et al. (2005) J. Virol. 79:10278-10288), and used to express and purify NS3h_DV2 (Belon, et al. (2010) supra)
Compounds that specifically target less conserved regions of a HCV protein are often not potent inhibitors of the same protein derived from other genotypes, and they might be susceptible to rapid evolution of related viruses. As described herein, primuline derivatives can inhibit HCV helicase isolated from the genotype 1b(con1) strain. Therefore to further analyze specificity, the subset of primuline analogs was tested on the helicase isolated from the genotype 2a(JFH1) strain. The two recombinant proteins differ at 83 of their 480 amino acids. The JHF1 strain is also of interest because it serves as the backbone for HCV strains capable of replicating in cell culture (Wakita, et al. (2005) Nat. Med. 11:791-796). The molecular beacon-based helicase assay (MBHA) (Belon & Frick (2008) supra) was used to measure the ability of each compound to inhibit DNA unwinding catalyzed by NS3h isolated from genotype 2a(JFH1) (NS3h_2a(JFH1)). […] Selected compounds were also tested for the ability to inhibit helicase reactions catalyzed by full-length NS3 and a single chain NS4A-NS3 protein (scNS4A-NS3) described below and used for protease assays.

[1] = system: HCV RLuc subgenomic replicon (genotype 1b) in Huh-7.5 cells; assay: HCV subgenomic replicon assay (Renilla luciferase); format: cell-based, hepatitis C virus; settings: for inhibition at 10 µM: Hepatitis C virus
Text: An HCV Renilla luciferase reporter construct (HCV RLuc; Huang, et al. (2006) Hepatology 43:81-90) was used to measure the effect of each compound on cellular HCV RNA levels. In HCV RLuc, the HCV internal ribosome entry site (IRES) drives the translation of the neomycin and Renilla luciferase genes while the HCV nonstructural proteins (NS3 to NS5B) are translated from the Encephalomyocarditis virus IRES (Huang, et al. (2006) supra). The plasmid DNA was cleaved with ScaI, purified by phenol/chloroform extraction followed by ethanol precipitation, and used as template for RNA transcription using […] T7 RNA transcription kit (Ambion, Austin, Tex.). The RNA transcripts were treated with 2 U DNase I (Ambion) at 37° C. for 30 minutes, purified by acid phenol/chloroform extraction, followed by isopropanol precipitation, and suspended in diethylpyrocarbonate-treated water. RNA concentration was determined by spectrophotometry by measuring the A260. RNA integrity and size was checked on 1% agarose gel. Transcribed RNA was stored in aliquots at −80° C. until needed.
Huh-7.5 cells were transfected with HCV RNA by electroporation. Briefly, subconfluent Huh7.5 cells were trypsinized, suspended in complete growth medium, and centrifuged at 1,000×g for 5 minutes at 4° C. The cell pellets were then washed twice with ice-cold phosphate-buffered saline (PBS) and suspended at 1.75×10^7 cells/mL in ice-cold PBS. Replicon RNA (5 μg) was mixed with 0.4 mL of cell suspension and transferred to 2 mm gap width electroporation cuvette (EPPENDORF AG, Germany) and pulsed 5 times for 99 μsec at 820 V over 1.1 sec intervals using the ECM 830 electroporator instrument (BTX Harvard Apparatus, Holliston, Mass.). After a 5 minute recovery period at room temperature, cells were transferred to 10 ml complete growth medium, and seeded into 10 cm diameter cell culture dishes. Twenty-four hours after transfection, the medium was replaced with fresh complete DMEM supplemented with 1 mg/ml geneticin (Invitrogen) and the medium was replaced every three to four days with fresh medium containing 1 mg/mL geneticin. Geneticin-resistant colonies were selected for a period of two weeks and expanded in the presence of 250 μg/mL geneticin.
HCV RLuc replicon cells were seeded at a density of 10×10^3 cells per well in 96-well plates and incubated for 4-5 hours to allow the cells to attach to the plate. The compounds dissolved in dimethyl sulfoxide (DMSO) were added at a final concentration of 10 μM (DMSO solvent final concentration was 0.5%) and the cells were incubated for 72 hours at 37° C. under 5% CO2 atmosphere. The effects of compounds on HCV replication were then assessed by measuring the Renilla luciferase activity in compound-treated versus DMSO-treated cells. At the end of the incubation period, the medium was aspirated and the cells were washed with 1×PBS. The Renilla luciferase reporter gene assay was performed using the Renilla luciferase assay kit (PROMEGA, Madison, Wis.) according to the manufacturer's instructions. Briefly, the cells were lysed by addition of 50 μL of 1× Renilla luciferase lysis buffer followed by two cycles of freeze/thaw. The luciferase activity content of the lysate was measured with a FLUOSTAR Omega microplate reader instrument (BMG Labtech, Germany) after injecting 50 μL of luciferase substrate and reading for 5 seconds.
To determine if the above identified compounds might be useful as HCV antiviral agents, they were added to cells harboring HCV subgenomic RNA replicon. The HCV replicon chosen was derived from the same HCV strain (genotype 1b) as the NS3 protein used for screening and enzyme assays. […] 75:4614-4624; Blight, et al. (2002) J. Virol. 76:13001-13014). […]

[2] = genotype 2a (JFH1), read-out: Target Potency MBHA (IC50 avg., μM) 2a (JFH1) (converted)
[3] = Huh7.5, 10 μM, read-out: Replicon (% Inhibition @ 10 μM)
[4] = Huh7.5, 10 μM compound, triplicate, average ± SD, read-out: HCV replication (% Inh.)
[5] = DNA-based MBHA, genotype 2a(JFH1), read-out: DNA Helicase NS3h_2a IC50 (μM) ± SD
[6] = Target Potency MBHA (IC50 avg., μM) 2a (JFH1), genotype 2a (JFH1)
[7] = Huh7.5, read-out: HCV replication (% Inh.)
[8] = Huh7.5, read-out: Replicon (% Inhibition @ 10 μM)

T1 sequence (Q99IB8 1196-1661): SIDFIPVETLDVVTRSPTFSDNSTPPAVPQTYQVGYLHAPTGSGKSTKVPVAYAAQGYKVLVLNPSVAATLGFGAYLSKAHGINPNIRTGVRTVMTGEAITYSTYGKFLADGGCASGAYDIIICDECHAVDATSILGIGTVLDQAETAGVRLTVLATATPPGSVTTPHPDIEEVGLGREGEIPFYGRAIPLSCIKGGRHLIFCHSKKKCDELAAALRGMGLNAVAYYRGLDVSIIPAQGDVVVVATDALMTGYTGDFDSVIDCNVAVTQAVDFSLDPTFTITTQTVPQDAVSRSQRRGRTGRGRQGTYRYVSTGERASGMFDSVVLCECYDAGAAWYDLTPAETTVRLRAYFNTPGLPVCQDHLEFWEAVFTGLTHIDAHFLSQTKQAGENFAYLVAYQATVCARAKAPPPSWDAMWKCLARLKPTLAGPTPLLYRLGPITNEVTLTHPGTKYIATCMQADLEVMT

## Cc1ccc2nc(-c3ccc4nc(-c5ccc(NC(=O)c6ccc7ncoc7c6)cc5)sc4c3)sc2c1S(=O)(=O)O
NS3h_2a(JFH1); [2]
  IC50: 6.4 µM
[1]; [3]
  inhibition at 10 µM: 15 ± 11%

## Cc1ccc2nc(-c3ccc4nc(-c5ccc(NS(=O)(=O)c6ccc(C(F)(F)F)cc6)cc5)sc4c3)sc2c1S(=O)(=O)O
NS3h_2a(JFH1); [2]
  IC50: 35 µM
[1]; [3]
  inhibition at 10 µM: -7 ± 14%

## Cc1ccc2nc(-c3ccc(NC(=O)c4ccc(C(F)(F)F)cc4)cc3)sc2c1S(=O)(=O)O
NS3h_2a(JFH1); [2]
  IC50: > 100 µM
[1]; [3]
  inhibition at 10 µM: 11 ± 14%

## Cc1ccc2nc(-c3ccc(NC(=O)c4ccc(N)cc4)cc3)sc2c1S(=O)(=O)O
NS3h_2a(JFH1); [2]
  IC50: 64 µM
[1]; [3]
  inhibition at 10 µM: 21 ± 29%

## Cc1ccc2nc(-c3ccc(NC(=O)c4ccc(NS(=O)(=O)c5ccccc5)cc4)cc3)sc2c1S(=O)(=O)O
NS3h_2a(JFH1); [2]
  IC50: > 100 µM
[1]; [3]
  inhibition at 10 µM: -73 ± 50%

## Cc1ccc2nc(-c3ccc(NC(=S)Nc4ccccc4Br)cc3)sc2c1
NS3h_2a(JFH1); [2]
  IC50: > 100 µM
[1]; [3]
  inhibition at 10 µM: 80 ± 17%

## Cc1ccc2nc(-c3ccc4nc(NC(=O)c5ccc6ncoc6c5)sc4c3)sc2c1
NS3h_2a(JFH1); [2]
  IC50: 75 ± 32.6 µM
[1]; [3]
  inhibition at 10 µM: 90 ± 35%

## Cc1ccc2nc(-c3ccc4nc(-c5ccc(NC(=O)c6ccccc6)cc5)sc4c3)sc2c1S(=O)(=O)O [Compound 5, 2′-(4-benzamidophenyl)-6-methyl-[2,6′-bibenzo[d]thiazole]-7-sulfonic acid]
NS3h_2a(JFH1); [2]
  IC50: 4.6 ± 1.4 µM
[1]; [4]
  inhibition at 10 µM: 45 ± 5%
[1]; [3]
  inhibition at 10 µM: 45 ± 5%

## Cc1ccc2nc(-c3ccc4nc(-c5ccc(NC(=O)c6ccc(N)cc6)cc5)sc4c3)sc2c1S(=O)(=O)O [Compound 6, 2′-(4-(4-aminobenzamido)phenyl)-6-methyl-[2,6′-bibenzo[d]thiazole]-7-sulfonic acid]
NS3h_2a(JFH1); [5]
  IC50: 5 ± 2.5 µM
NS3h_2a(JFH1); [2]
  IC50: 5.3 ± 2.5 µM
[1]; [4]
  inhibition at 10 µM: 33 ± 1%
[1]; [3]
  inhibition at 10 µM: 33 ± 1%

## Cc1ccc2nc(-c3ccc4nc(-c5ccc(NC(=O)c6ccc(F)cc6)cc5)sc4c3)sc2c1S(=O)(=O)O.N [Compound 7, 2′-(4-(4-fluorobenzamido)phenyl)-6-methyl-[2, bibenzo[d]thiazole]-7-sulfonic acid]
NS3h_2a(JFH1); [5]
  IC50: 3 ± 0.8 µM
NS3h_2a(JFH1); [2]
  IC50: 3 ± 0.8 µM
[1]; [4]
  inhibition at 10 µM: 50 ± 5%
[1]; [3]
  inhibition at 10 µM: 50 ± 5%

## COc1ccc(C(=O)Nc2ccc(-c3nc4ccc(-c5nc6ccc(C)c(S(=O)(=O)O)c6s5)cc4s3)cc2)cc1 [Compound 8, 2′-(4-(4-methoxybenzamido)phenyl)-6-methyl-[2,6′-bibenzo[d]thiazole]-7-sulfonic acid]
NS3h_2a(JFH1); [6]
  IC50: 5.4 ± 1.4 µM
[1]; [7]
  inhibition at 10 µM: 64 ± 4%
[1]; [8]
  inhibition at 10 µM: 64 ± 4%

## COC(=O)c1ccc(C(=O)Nc2ccc(-c3nc4ccc(-c5nc6ccc(C)c(S(=O)(=O)O)c6s5)cc4s3)cc2)cc1 [Compound 9, 2′-(4-(4-(methoxycarbonyl)benzamido)phenyl)-6-methyl-[2,6′-bibenzo[d]thiazole]-7-sulfonic acid]
NS3h_2a(JFH1); [2]
  IC50: 2.4 ± 0.6 µM
[1]; [4]
  inhibition at 10 µM: 40 ± 1%
[1]; [3]
  inhibition at 10 µM: 40 ± 1%

## Cc1ccc2nc(-c3ccc4nc(-c5ccc(NC(=O)c6ccc(Cl)cc6)cc5)sc4c3)sc2c1S(=O)(=O)O [Compound 10, 2′-(4-(4-chlorobenzamido)phenyl)-6-methyl-[2,6′-bibenzo[d]thiazole]-7-sulfonic acid]
NS3h_2a(JFH1); [6]
  IC50: 2.3 ± 0.5 µM
[1]; [7]
  inhibition at 10 µM: 42 ± 9%
[1]; [8]
  inhibition at 10 µM: 42 ± 9%

## Cc1ccc(C(=O)Nc2ccc(-c3nc4ccc(-c5nc6ccc(C)c(S(=O)(=O)O)c6s5)cc4s3)cc2)cc1 [Compound 11, 6-methyl-2′-(4-(4-methylbenzamido)phenyl)-[2,6′-bibenzo[d]thiazole]-7-sulfonic acid]
NS3h_2a(JFH1); [2]
  IC50: 2.5 ± 0.5 µM
[1]; [4]
  inhibition at 10 µM: 52 ± 12%
[1]; [3]
  inhibition at 10 µM: 52 ± 12%

## Cc1ccc2nc(-c3ccc4nc(-c5ccc(NC(=O)c6ccc(C(F)(F)F)cc6)cc5)sc4c3)sc2c1S(=O)(=O)O [Compound 12, 6-methyl-2′-(4-(4-(trifluoromethyl)benzamido)phenyl)-[2,6′-bibenzo[d]thiazole]-7-sulfonic acid]
NS3h_2a(JFH1); [5]
  IC50: 2 ± 1 µM
NS3h_2a(JFH1); [2]
  IC50: 2.5 ± 1 µM
[1]; [4]
  inhibition at 10 µM: 44 ± 12%
[1]; [3]
  inhibition at 10 µM: 44 ± 12%

## Cc1ccc2nc(-c3ccc4nc(-c5ccc(NC(=O)c6ccc(C(C)(C)C)cc6)cc5)sc4c3)sc2c1S(=O)(=O)O [Compound 13, 2′-(4-(4-(tert-butyl)benzamido)phenyl)-6-methyl-[2,6′-bibenzo[d]thiazole]-7-sulfonic acid]
NS3h_2a(JFH1); [5]
  IC50: 5 ± 0.7 µM
NS3h_2a(JFH1); [2]
  IC50: 5 ± 0.7 µM
[1]; [4]
  inhibition at 10 µM: 51 ± 9%
[1]; [3]
  inhibition at 10 µM: 51 ± 9%

## Cc1ccc2nc(-c3ccc4nc(-c5ccc(NC(=O)c6ccc(N(C)C)cc6)cc5)sc4c3)sc2c1S(=O)(=O)O [Compound 14, 2′-(4-(4-(dimethylamino)benzamido)phenyl)-6-methyl-[2,6′-bibenzo[d]thiazole]-7-sulfonic acid]
NS3h_2a(JFH1); [2]
  IC50: 6.4 ± 1.2 µM
[1]; [4]
  inhibition at 10 µM: 22 ± 2%
[1]; [3]
  inhibition at 10 µM: 22 ± 2%

## Cc1ccc2nc(-c3ccc4nc(-c5ccc(N)cc5)sc4c3)sc2c1S(=O)(=O)O [Compound P2a, 2′-(4-aminophenyl)-6-methyl-[2,6′-bibenzo[d]thiazole]-7-sulfonic acid]
NS3h_2a(JFH1); [5]
  IC50: 58 ± 51 µM

## Cc1ccc2nc(-c3ccc4nc(-c5ccc6nc(-c7ccc(N)cc7)sc6c5)sc4c3)sc2c1S(=O)(=O)O [Compound P3, 2″-(4-aminophenyl)-6-methyl-[2,6′:2′,6″-terbenzo[d]thiazole]-7-sulfonic acid]
[1]; 10 μM
  ability to decrease the amount of HCV RNA present in the cultures: showed any ability to decrease the amount of HCV RNA present in the cultures
